In patent US20030125388A1, “5-Aminolevulinic acid formulation dissolved/dispersed in non-aqueous solvents” (priority 2000, published 2003):

What was measured:
[1] = Decomposition check of non-aqueous 5-ALA solutions by capillary electrophoresis; type: physicochemical; conditions: 10% solutions (weight/vol) in 1,2-propylene glycol and glycerol, after complete dissolution
Description: 10% solutions (weight/vol) of […] in 1,2-propylene glycol and glycerol were prepared.

[2] = UV-VIS measurement of 5-ALA solution after dilution with water; type: physicochemical; conditions: 10% water-free solution, water added 1:1, subsequently diluted 1:100 with water
Description: This was detected by measuring the decrease of absorbance at 447 nm (FIG. 2).

NCC(=O)CCC(=O)O [5-ALA, 5-aminolevulinic acid]
degradation products (DHPY, PY, porphobilinogen) in capillary electrophoresis [1]: neither DHPY, PY nor porphobilinogen were detected | by-products in UV spectrum [2]: without the presence of by-products
